Data set [1] deals with T1, human recombinant CCR4 receptor (Homo sapiens, UniProt P51679).
T1 construct: host or cells: CHO-K1
T1 sequence (P51679 1-360): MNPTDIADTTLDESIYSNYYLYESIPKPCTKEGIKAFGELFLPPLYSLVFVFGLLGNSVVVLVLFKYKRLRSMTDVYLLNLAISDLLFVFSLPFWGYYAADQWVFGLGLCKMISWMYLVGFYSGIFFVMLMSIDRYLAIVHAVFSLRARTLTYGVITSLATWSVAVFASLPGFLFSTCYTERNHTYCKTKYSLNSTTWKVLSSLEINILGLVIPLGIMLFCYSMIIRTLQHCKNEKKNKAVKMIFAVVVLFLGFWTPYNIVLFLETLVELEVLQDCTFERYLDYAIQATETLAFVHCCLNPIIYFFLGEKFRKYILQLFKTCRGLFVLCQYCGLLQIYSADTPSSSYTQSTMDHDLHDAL
The data set can be described thus: FMAT whole cell binding assay (FB-MDC binding to cells). Conditions: CHO-K1 cells stably expressing human recombinant CCR4; inhibition of binding of fluorescent FB-MDC, two hours at room temperature. The method, then:
FMAT Whole Cell Binding Assay
CHO—K1 cells stably expressing the human recombinant CCR4 receptor (Euroscreen; Brussels, Belgium) were cultured in NUT.MIX.F—12(HAM) medium with glutamax-1, containing 10% (v/v) foetal bovine serum and 400 μg ml^−1 geneticin.
Cells were harvested at approximately 70% confluence by treatment with a cell dissociation buffer, and seeded at 5×10^3 cells/100 μl culture medium into wells of a black Costar clear-bottomed 96-well microtitre plates. Plates were incubated overnight at 37° C. in 5% CO2 and used the following day.
Before use, the cell plates were washed twice with 100 μl Hanks balanced salt solution (HBSS). To each well was then added 65 μl of HBSS, 10 μL of 10% DMSO in HBSS±test compound and then 25 μL of 2.8 nM FB-MDC (Applied Biosystems). This fluorescent probe was prepared from a 10 μM stock in 0.08% (v/v) TFA/16% (v/v) acetonitrile, diluted into HBSS.
After two hours incubation in the dark at room temperature, the plates were analysed in an FMAT8100 reader (Applied Biosystems) to measure fluorescence that was associated with binding of FB-MDC to the cells.

The record followed here is patent publication US7662825B2, “N-pyrazinyl-phenylsulphonamides and their use in the treatment of chemokine mediated diseases” (AstraZeneca AB, priority 2002, dated 2010).

Broadly, the IC50 is the concentration at which inhibition is half-maximal. Usually melting point stands for the temperature of the solid-liquid transition.

As to `COC(=O)c1nc(OC)c(NS(=O)(=O)c2cccc(Cl)c2Cl)nc1C` [Example 119, 5-(2,3-Dichlorobenzenesulphonylamino)-6-methoxy-3-methylpyrazine-2-carboxylic aicd, methyl ester], the melting point fell in the range of 149 to 150 °C. For the same compound, the IC50 in data set [1] was 63.1 nM.

For `COc1nc(CN2CCOCC2)cnc1NS(=O)(=O)c1cccc(Cl)c1Cl` [Example 186, 2,3-Dichloro-N-[3-methoxy-5-(4-morpholinylmethyl)-2-pyrazinyl]benzenesulphonamide], in data set [1], the IC50 is 631 nM.
